Data on one compound can be found in patent US5447862A, “Pectin lyase genes of aspergillus niger” (Ciba-Geigy Corporation, priority 1987, dated 1995).

The test system of this assay is Aspergillus niger pectin lyase B (PLB), purified from pelB transformant B13, SEQ ID NO: 6. The following applies: EDTA 3 mM final concentration in the reaction mixture; enzyme reactivated by excess of Ca2+ ions.

Method: Both highly esterified pectin (d.e. 94%) as well as pectins with lower degree of esterification like Brown Ribbon apple pectin (d.e. 72.8%; Obipektin AG Bischoffzell) can be used as substrate.
These values are determined according to the procedure of van Houdenhoven (ref. 18) using a Mc Ilvaine buffer of pH 8.0 (μ=0.5).

`O=C([O-])CN(CCN(CC(=O)O)CC(=O)O)CC(=O)[O-].[Na+].[Na+]` [EDTA, ethylenediaminetetraacetic acid disodium salt]: the “inhibition of the pectin lyase reaction by EDTA” value is given as “inhibited”.
